ChEMBL document CHEMBL1201862, “PubChem BioAssay data set” (2004)
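Assay format: 96-well plates, 48-hour exposure. GI50 is the concentration that inhibits growth by half.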 Calls of active or inactive are those of the source. No stated cut-off is given here; in the data, active = GI50 up to about 1.1 µM and inactive = higher.

How the values were obtained:
Test in all cases: NCI anticancer screen, dose series, 48 h
HOP-18 = test system: HOP-18
KM-20L2 = test system: KM-20L2
DMS-114 = test system: DMS-114
BT-549 = test system: BT-549
SNB-78 = test system: SNB-78
T47D = test system: T47D
Hs-578T = test system: Hs-578T
DLD-1 = test system: DLD-1
RXF 631 = test system: RXF 631

Measured: GI50

CN(C)CCCCN1CCc2c(n(C)c3ccccc23)C1=O
inactive: HOP-18 > 100 µM | KM-20L2 33 µM | DMS-114 > 80.7 µM | BT-549 > 37.8 µM | SNB-78 > 100 µM | T47D 23.4 µM | Hs-578T 41.8 µM | DLD-1 60.4 µM

CC[P+](C)(Cc1ccccc1)c1ccccc1 (stereo unspecified)
inactive: HOP-18 > 100 µM | KM-20L2 > 100 µM | DMS-114 87.7 µM | SNB-78 > 100 µM | DLD-1 > 100 µM

CC(=O)c1cccc(C)c1C(=O)O
inactive: HOP-18 > 100 µM | KM-20L2 > 100 µM | DMS-114 > 100 µM | SNB-78 95.5 µM | DLD-1 > 100 µM

COc1cc2ccc(C(=O)O)cc2cc1OC
inactive: HOP-18 > 100 µM | KM-20L2 > 100 µM | SNB-78 > 100 µM

O=C1C=C(c2ccccc2)NC1(c1ccccc1)c1cc(-c2ccccc2)[nH]c1-c1ccccc1 (stereo unspecified)
inactive: HOP-18 > 100 µM | KM-20L2 > 100 µM | DMS-114 > 100 µM | RXF 631 > 100 µM | SNB-78 > 100 µM | DLD-1 > 100 µM

CCC1=C(CC)C1(C#N)[N+](=O)[O-]
inactive: KM-20L2 > 100 µM | DMS-114 > 100 µM | SNB-78 > 100 µM | DLD-1 > 100 µM

CC(C)c1cccc(C(C)C)c1NC(=O)CCC(=O)NN
inactive: HOP-18 > 100 µM | KM-20L2 > 100 µM | DMS-114 > 100 µM | SNB-78 > 100 µM | DLD-1 > 100 µM

O=C(CC/C(CC(=O)c1ccc(Cl)cc1)=N\O)Nc1cccc(Cl)c1
inactive: KM-20L2 > 100 µM | DMS-114 > 100 µM | SNB-78 > 100 µM | DLD-1 > 100 µM

Cc1cc(C)c2c(c1)CN1CN2Cc2cc(C)cc(C)c21
inactive: HOP-18 36.4 µM | SNB-78 17.5 µM | DLD-1 24.7 µM

COc1cc([C@@H]2c3cc4c(cc3[C@@H](NCc3cccc(C#N)c3)C3COC(=O)[C@@H]32)OCO4)cc(OC)c1O (stereo partly specified)
inactive: HOP-18 > 100 µM | KM-20L2 1.58 µM | DMS-114 1.87 µM | RXF 631 1.29 µM | DLD-1 1.7 µM

Cc1cc(=O)n(-c2c(C)cccc2Cl)c(/C=C(\O)c2ccncc2)n1
inactive: HOP-18 > 100 µM | KM-20L2 > 100 µM | DMS-114 > 100 µM | RXF 631 > 100 µM | SNB-78 > 100 µM | DLD-1 > 100 µM

CC1=C(NC(=O)C(=O)NNC(=O)c2ccncc2)C(=O)c2ccccc2C1=O
inactive: HOP-18 10.5 µM | KM-20L2 23.4 µM | DMS-114 4.76 µM | RXF 631 40.4 µM | SNB-78 14.5 µM | DLD-1 13.8 µM

CCCCOC(=O)/C(CC(=O)C=C(C)C)=N\NS(=O)(=O)c1ccc(C)cc1
inactive: HOP-18 > 100 µM | KM-20L2 > 100 µM | DMS-114 21.1 µM | SNB-78 > 100 µM | DLD-1 65.5 µM

O=C1Cc2ccccc2N1/N=C\c1ccc([N+](=O)[O-])cc1
inactive: HOP-18 > 100 µM | KM-20L2 > 100 µM | DMS-114 > 100 µM | SNB-78 > 100 µM | DLD-1 > 100 µM

CC(C)c1ccc(Cc2ccc(C(C)C)c(NC(=O)C(=O)Cc3cnc4ccccc4n3)c2C(C)C)c(C(C)C)c1NC(=O)C(=O)Cc1cnc2ccccc2n1
inactive: KM-20L2 > 100 µM | DMS-114 > 100 µM | RXF 631 > 100 µM | SNB-78 > 100 µM | DLD-1 > 100 µM

O=C1C(Cl)=C(Cl)C(=O)N1c1cccc(C(F)(F)F)c1
inactive: HOP-18 > 100 µM | KM-20L2 > 100 µM | DMS-114 > 100 µM | RXF 631 > 100 µM | SNB-78 > 100 µM | DLD-1 > 93.3 µM
